What was measured:
PC-3 = assay: Antiproliferative activity against human PC-3 cells assessed as cell viability incubated for 72 hrs by MTT assay; type: functional, cell-based; conditions: PC-3, 72 h
RKO = assay: Antiproliferative activity against human RKO cells assessed as cell viability incubated for 72 hrs by MTT assay; type: functional, cell-based
MCF7 = assay: Antiproliferative activity against human MCF7 cells assessed as cell viability incubated for 72 hrs by MTT assay; type: functional, cell-based; conditions: MCF7, 72 h
HepG2 = assay: Antiproliferative activity against human HepG2 cells assessed as cell viability incubated for 72 hrs by MTT assay; type: functional, cell-based; conditions: HepG2, 72 h
HT-29 [1] = assay: Antiproliferative activity against human HT-29 cells assessed as cell viability incubated for 72 hrs by MTT assay; type: functional, cell-based; conditions: HT-29, 72 h
[2] = Resistance index, ratio of IC50 for human A549/TxR cells to IC50 for human A549 cells; type: functional
HT-29 [3] = assay: Induction of cell cycle arrest in human HT-29 cells assessed as accumulation of cells at G1 phase at 10 nM incubated for 24 hrs by flow cytometry analysis (reference value: 67.6%); type: functional
HT-29 [4] = assay: Induction of cell cycle arrest in human HT-29 cells assessed as accumulation of cells at S phase at 10 nM incubated for 24 hrs by flow cytometry analysis (reference value: 20.8 %); type: functional
HT-29 [5] = assay: Induction of cell cycle arrest in human HT-29 cells assessed as accumulation of cells at G2 phase at 10 nM incubated for 24 hrs by flow cytometry analysis (reference value: 13 %); type: functional
HT-29 [6] = assay: Induction of apoptosis in human HT-29 cells assessed as viable cells at 20 nM incubated for 24 hrs by FITC/PI staining based flow cytometry analysis (reference value: 91.6%); type: functional; conditions: read-out: Activity
HT-29 [7] = assay: Induction of apoptosis in human HT-29 cells assessed as early apoptotic cells at 20 nM incubated for 24 hrs by FITC/PI staining based flow cytometry analysis (reference value: 8.14%); type: functional
HT-29 [8] = assay: Induction of apoptosis in human HT-29 cells assessed as late apoptotic cells at 20 nM incubated for 24 hrs by FITC/PI staining based flow cytometry analysis (reference value: 0.20%); type: functional
HT-29 [9] = assay: Induction of apoptosis in human HT-29 cells assessed as necrotic cells at 20 nM incubated for 24 hrs by FITC/PI staining based flow cytometry analysis (reference value: 0.017 %); type: functional
MDA-MB-231 = assay: cells; conditions: Homo sapiens, MDA-MB-231, 72 h
Description: Antiproliferative activity against human MDA-MB-231 cells assessed as cell viability incubated for 72 hrs by MTT assay

SMILES: CC(=O)O[C@H]1C(=O)[C@@]2(C)[C@H]([C@H](OC(=O)c3ccccc3)[C@]3(O)C[C@H](OC(=O)[C@H](O)[C@@H](NC(=O)c4ccccc4)c4ccccc4)C(C)=C1C3(C)C)[C@]1(OC(C)=O)CO[C@@H]1C[C@@H]2O [PACLITAXEL]
- IC50 (PC-3): 0.028 µM
- IC50 (RKO): 0.003 µM
- IC50 (MCF7): 0.037 µM
- IC50 (HepG2): 0.036 µM
- IC50 (HT-29 [1]): 0.013 µM
- Ratio IC50 [2]: 11.29
- Activity (HT-29 [3]): 60.2%
- Activity (HT-29 [4]): 15.1%
- Activity (HT-29 [5]): 22.6%
- viability at 0.02 µM (HT-29 [6]): 70.6%
- Activity (HT-29 [7]): 5.4%
- Activity (HT-29 [8]): 22.7%
- Activity (HT-29 [9]): 1.32%
- IC50 (MDA-MB-231): 0.022 µM

— ChEMBL document CHEMBL6092217 (Eur J Med Chem, 2024)
